Literature values in patent US7368441B2, “Method of increasing intracellular concentrations of phosphate and increasing the force of muscular contractions” (Aplodan Formulations Ltd., priority 2006, dated 2008).
Read-outs that look alike come from different tables or passages of the source.

Assays:
[1] = patients with inadequate coronary blood flow
[2] = alkaline and acidic solutions
[3] = clinical trials
[4] = unaffected in placebo group
[5] = in vitro
[6] = elderly subjects
[7] = oral administration, test animals, at 48 hours
[8] = administration in humans
[9] = in vivo

dephosphorylation to creatine ([5]; blood and muscle): less so | absorption by the intestine [7]: about 60% | urine levels of creatinine [8]: increases urine levels of creatinine | 14C radio-labeled compound found in skeletal muscle (Guinea-Pig, intravenous, intramuscular and oral administration): Significant amounts | duration of more constant level in the body following administration (oral administration): about 15 hours | time after which level in the body begins to decrease (oral administration): 33 h
Compound: CN(CCOP(=O)(O)O)C(=N)N [2-(carbamimidoyl-methyl-amino)ethoxyphosphonic acid]
cardiac parameters [1]: improve cardiac parameters | stability in solution [2]: stable in both alkaline and acidic solutions | muscle development and capacity to perform physical activity [3]: improve muscle development and increase the capacity to perform physical activity | hand strength [4]: improved | dephosphorylation to creatine ([5]; kidney, intestine and liver): dephosphorylated to creatine to some degree | muscular performance [6]: improved muscular performance | tolerability / side effects [9]: well tolerated and without side effects
